Results on 17 molecules are retold here after PMC11381239, “Endocannabinoid regulation of inward rectifier potassium (Kir) channels” (Frontiers in Pharmacology, 2024).

For orientation: EC50 means the concentration that produces a half-maximal response.

Substitutions are numbered along the chain they refer to. Where two headings read alike, the source gives them in different places.

What all share (experiment): two-electrode voltage clamp, slope conductance Gmax
Holding throughout (format): cell-based
(In two-electrode clamp one electrode senses voltage and the other passes current.)

In one test the target is T1, Kir2.1 (Homo sapiens, UniProt P63252).
T1 construct: gene KCNJ2; full-length human Kir2.1 cDNA in pcDNA3.1, RNA expressed in Xenopus laevis oocytes; homotetramer
T1 sequence (P63252 1-427): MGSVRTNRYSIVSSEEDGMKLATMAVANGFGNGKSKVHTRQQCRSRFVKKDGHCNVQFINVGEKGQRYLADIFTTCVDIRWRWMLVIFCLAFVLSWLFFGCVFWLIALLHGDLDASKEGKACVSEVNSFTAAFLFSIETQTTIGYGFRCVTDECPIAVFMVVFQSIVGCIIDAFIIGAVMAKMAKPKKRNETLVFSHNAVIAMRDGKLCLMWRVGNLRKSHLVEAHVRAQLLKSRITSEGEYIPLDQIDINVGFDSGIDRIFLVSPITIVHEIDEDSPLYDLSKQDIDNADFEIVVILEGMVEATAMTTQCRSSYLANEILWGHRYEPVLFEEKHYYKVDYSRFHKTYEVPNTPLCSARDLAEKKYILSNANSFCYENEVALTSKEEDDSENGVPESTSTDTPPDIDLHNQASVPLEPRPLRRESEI
The note with it: for Emax (%): maximal increase in Gmax, vehicle (ethanol) control in same table. The text has this:
two-electrode voltage clamp, slope conductance Gmax on Kir2.1

The target of the next test is T2, WT:G144S Kir2.1 (Homo sapiens, UniProt P63252, G144S).
T2 construct: gene KCNJ2; WT Kir2.1 co-expressed 1:1 with LQT7 mutant G144S Kir2.1 in Xenopus laevis oocytes; mixed tetramers, exact subunit stoichiometry not fixed
T2 sequence (P63252 1-427): T1 sequence (P63252 1-427)
T2 sequence (P63252 1-427 G144S): T1 sequence (P63252 1-427) with G144S

Another test concerns the target T3, Kir4.1 (Rattus norvegicus, UniProt P49655).
T3 construct: gene Kcnj10; full-length rat Kir4.1 cDNA in pcDNA3.1, RNA expressed in Xenopus laevis oocytes; homotetramer
T3 sequence (P49655 1-379): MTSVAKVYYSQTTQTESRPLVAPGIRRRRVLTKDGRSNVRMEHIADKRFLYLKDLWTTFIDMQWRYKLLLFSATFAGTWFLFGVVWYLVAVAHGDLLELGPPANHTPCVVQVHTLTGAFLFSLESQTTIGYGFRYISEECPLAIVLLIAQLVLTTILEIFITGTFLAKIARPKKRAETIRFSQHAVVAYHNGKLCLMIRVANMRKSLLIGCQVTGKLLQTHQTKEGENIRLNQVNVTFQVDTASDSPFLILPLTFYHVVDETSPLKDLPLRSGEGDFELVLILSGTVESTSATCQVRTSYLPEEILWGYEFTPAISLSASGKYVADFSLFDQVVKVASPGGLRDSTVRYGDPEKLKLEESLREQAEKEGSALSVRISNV
The text has this:
two-electrode voltage clamp, slope conductance Gmax on Kir4.1

Setting [1] is: 89 mM KCl bath, pH 7.4, room temperature.

`CCCCC/C=C\C/C=C\C/C=C\C/C=C\CCCC(=O)OCC(O)CO` (stereo not drawn) [1-AG] displayed an EC50 at Kir2.1 of 20 ± 0.9 µM.
As for `CCCCC/C=C\C/C=C\C/C=C\C/C=C\CCCC(=O)OC(CO)CO` [2-AG], on Kir2.1, the midpoint of the response, the EC50, lay at 25.5 ± 1.1 µM.
For the molecule `CCCCC/C=C\C/C=C\CCCCCCCC(=O)OC(CO)CO` [2-LG], the “Emax (%)” value at Kir2.1 (setting [1]) came to 5.4 ± 0.3%.
On to `CCCCCCCCCCCCCCCC(=O)OC(CO)CO` [2-PG], for which the EC50 on WT:G144S Kir2.1 was determined as 11.7 ± 1 µM; at Kir2.1, 12.7 ± 2 µM; at Kir4.1, 12.4 ± 0.7 µM.
Consider `CCCCC/C=C\C/C=C\C/C=C\C/C=C\CCCC(=O)NCCO` [AEA], for which the “Emax (%)” value on Kir2.1 (setting [1]) amounted to 5.3 ± 1.3%.
On to `CCCCC/C=C\C/C=C\C/C=C\C/C=C\CCCC(=O)N[C@@H](CO)C(=O)O` [AS], for which the “Emax (%)” value on Kir2.1 (setting [1]) came to 1.0 ± 0.1%.
Turning to `CCCCCCCCCCCCCCCCCCCC(=O)NCCO` [ArEA], the EC50 on WT:G144S Kir2.1 was 30.7 ± 3.4 µM; at Kir2.1 it was 12.6 ± 4.1 µM; on Kir4.1, 4.5 ± 3.9 µM.
Molecule `CCCCC/C=C\C/C=C\C/C=C\C/C=C\CCCCCC(=O)NCCO` [DEA] registered an EC50 on Kir2.1 of 32 ± 3.9 µM.
Still for that read-out and setting: for `CCCCC/C=C\C/C=C\CCCCCCCC(=O)NCCO` [LEA] the value was 29 ± 1 µM; for `CCCCC/C=C\C/C=C\C/C=C\C/C=C\CCCC(=O)NCC(=O)O` [NAGly], 27.7 ± 2.8 µM; for `CCCCCCCC/C=C\CCCCCCCCCCCCCC(=O)NCCO` [NEA], 23.3 ± 2.1 µM.
On the same count and under the same terms, in the case of `CCCCCCCC/C=C\CCCCCCCC(=O)NCCO` [OEA] it was 9.2 ± 0.9 µM.
At Kir2.1, `CCCCCC/C=C\CCCCCCCC(=O)NCCO` [POEA] yielded an EC50 of 9.3 ± 0.7 µM.
On Kir2.1, `CCCCCCCCCCCCCCCCCC(=O)NCCO` [SEA] had an EC50 of 10.2 ± 4.9 µM.
Same read-out and setting: in the case of `CC/C=C\C/C=C\C/C=C\CCCCCCCC(=O)NCCO` [αLnEA] it was 24.5 ± 4.2 µM.
For the molecule `CCCCC/C=C\C/C=C\C/C=C\CCCCC(=O)NCCO` [ϒLnEA], a half-maximal response at Kir2.1 (EC50) required 36.8 ± 3.8 µM.
Consider oxy-AEA, for which it took 25.3 ± 1.1 µM to reach a half-maximal effect on Kir2.1 (activation, 89 mM KCl bath, pH 7.4, room temperature, mode: indirect via membrane according to authors) (EC50).
